One compound from patent US11382889B2, “NRF2 activators for the prevention and/or treatment of axonal degeneration” (priority 2018, dated 2022) can be followed below.

In experiment [1] the test system is Abcd1−/Abcd2−/− (DKO) mice spinal cord. Put plainly: Immunohistological analysis of axonal pathologies in Abcd1−/Abcd2−/− (DKO) mice spinal cord. It counts as in vivo. The settings on record: 18 months of age, DMF 100 mg/kg in chow for 6 months. The source says:
a-x) Immunohistological analysis of axonal pathologies performed in 18-month-old WT, Abcd1^−/Abcd2^−/− (DKO) and Abcd1^−/Abcd2^−/− mice treated with DMF (DKO+DMF) (n=5 per genotype and condition). Spinal cord immunohistological sections were processed for (a-c) Iba1, (d-f) GFAP, (g-i) Synaptophysin, (j-l) APP, (m-o) Sudan black, (p-r) 8-oxo-dG, (s-u) CYT C and (v-x) SMI-32 immunostaining. Representative images for (a, d, g, j, m, p, s, v) WT, (b, e, h, k, n, q, t, w) DKO, and (c, f, i, l, o, r, u, x) DKO+DMF are shown. Scale bars=25 μm (a-r) and […] (s-x). y) Quantification of synaptophysin and APP accumulations in spinal cord immunohistological sections of WT (n=5), DKO (n=5) and DKO+DMF (n=5) mice. z) Bar-cross and treadmill tests performed on 18-month-old WT (n=14), Abcd1^−//Abcd2^−/− (DKO) (n=16) and Abcd1^−//Abcd2^−/− mice treated with DMF (DKO+DMF) (n=14). […] Values are expressed as mean±SD (*p<0.05, **p<0.01, ***p<0.001 after one-way ANOVA test followed by Tukey's post hoc test; p<0.05, p<0.001 after non-parametric Kruskal-Wallis' test).
To address the therapeutic effect of DMF, we assessed the clinical signs of AMN in Abcd1^−/Abcd2^−/− (DKO) mice, which display increased VLCFA accumulation in the spinal cord, higher levels of oxidative damage to proteins, and a more severe AMN-like pathology with an earlier onset at 12 months of age.
(§1) For biochemical analysis, we killed the mice and stored the tissues at −80° C. after snap-freezing them in liquid nitrogen. For histological analysis, spinal cord was harvested from 18-month-old mice after perfusing them with 4% paraformaldehyde (PFA; Sigma-Aldrich, Ref. 441244) in 0.1 M phosphate buffer pH 7.4. Histological and behavioural tests were performed in a blind way with respect to the animal's genotype and for the treatment administered.
To evaluate the effect of DMF on axonal degeneration and locomotor impairment in X-ALD, Abcd1^−/Abcd2^−/− mice (DKO) were fed with chow including DMF (100 mg/kg).

The next experiment has as its system Abcd1− mice spinal cord. The experiment can be described thus: Inflammatory profile (quantitative RT-PCR) and oxidative lesions (GC/MS) in Abcd1− mice spinal cord. The settings on record: 12 months of age. It counts as in vivo. Here is the method:
a) Th1 (Nfκb2, Il1β, Il6, Tnfα, Tnfrsf1a, Ccl5, Cxcl9, Cxcl10, Ccr6) and b) Th2 (Fizz1, Chil3, Cxcl12, Il10, Igf1, Mif, Tgfβ1) inflammatory profile in WT (n=8), Abcd1^− (n=8) and Abcd1^−+DMF (n=8) mice spinal cord at 12 months of age. Cytokines, chemokines and other inflammation-related genes expression was measured by quantitative RT-PCR. Gene expression levels were normalized relative to Rplp0. Quantification is depicted as fold change to WT mice. c) Oxidative lesions to lipids and proteins in WT (n=5), Abcd1^− (n=5) and Abcd1^−+DMF (n=5) mice spinal cord at 12 months of age. AASA, CEL, CML and MDAL levels were measured by GC/MS. Quantification is represented as fold change to WT mice. Data are shown as mean±SD (*p<0.05, **p<0.01, ***p<0.001 after one-way ANOVA test followed by Tukey's post-hoc test; p<0.05, p<0.01, p<0.001 after non-parametric Kruskal-Wallis' test).
Cages contained 3 to 5 animals.
We used two X-ALD mouse models in this study. We characterized the biochemical signs of adult X-ALD in Abcd1^− mice at 12 months of age. These mice show biochemical signs of pathology, including oxidative stress and energetic homeostasis impairment, before the first clinical signs of AMN-like pathology (axonopathy and locomotor impairment) appear at 20 months.
as §1
In Abcd1^− mouse, a functional genomics assay detected NFκB-mediated inflammatory pathway activation in Abcd1^− mouse spinal cord, and increased expression of several proinflammatory genes. Regarding AMN patients, we have recently described a general dysregulation of inflammatory pathways in peripheral blood mononuclear cells (PBMCs) and plasma from AMN patients. As DMF is a classical immunomodulatory drug, we examined its effects on mRNA expression of several inflammation-related genes in Abcd1^− mice spinal cord.
Nuclear factor kappa B subunit 2 (Nfκb2), which belongs to the non-canonical NFκB pathway, as well as the majority of M1 markers were increased in Abcd1^− mouse spinal cord, including interleukin 1 beta (Il1β), tumour necrosis factor alpha (Tnfα), tumour necrosis factor receptor superfamily member 1a (Tnfrsf1a), chemokine (C-C motif) ligand 5 (Ccl5), chemokine (C-X-C motif) ligand 9 (Cxcl9), chemokine (C-X-C motif) ligand 10 (Cxcl10) and chemokine (C-C motif) receptor type 6 (Ccr6) (FIG. 2a). […] Only few of them were decreased in Abcd1^− mouse spinal cord: interleukin 6 ([…]), resistin like alpha (Retnla, also called Fizz1) and macrophage migration inhibitory factor (Mif) (FIG. 2a-b).

Setting [2] is: Abcd1− mouse spinal cord, DMF 100 mg/kg/day in chow.

Counter-ions that a name gives are not always drawn.

With `COC(=O)/C=C/C(=O)OC` [DMF, dimethyl fumarate], in experiment [1] (DKO mice spinal cord), the “accumulation of APP in axons” value is listed as “prevented the accumulation”, the “accumulation of synaptophysin in axons” value is reported as “prevented the accumulation”, the “astrocytosis (GFAP)” value is given as “reversed” and the “microgliosis (Iba1)” value was “reversed”. Further, in experiment [1] (DKO mice spinal cord), the “mitochondrial levels (CYT C staining in motor neurons)” value was “improved”, the “motor neurons health (SMI-32 staining)” value is given as “improved” and the “oxidative damage to DNA (8-oxo-dG staining)” value is given as “reduced”. Besides, the “myelin debris along the spinal cord (Sudan black)” value in experiment [1] (DKO mice) is “halted the appearance”. Also, the “oxidative damage to proteins and lipids (AASA, CEL, CML, MDAL)” value in the experiment on Abcd1− mice spinal cord (Abcd1− mice spinal cord, DMF 100 mg/kg/day in chow for 4 months) is listed as “prevents”. Also, in the experiment on Abcd1− mice spinal cord (setting [2]), the “Il1β and Chil3 mRNA” value was “exacerbated the induction”; the “Tnfrsf1a, Cxcl9 and Fizz1 mRNA” value is “no effect”; the “interleukin 10 (Il10) mRNA” value is “upregulated”; the “mRNA levels of Nfκb2, Il6, Tnfα, Ccl5, Cxcl10, Ccr6, Mif, Cxcl12, Tgfβ1, Igf1” value is listed as “normalizing”.
